Reference: patent US20240158446A1, “CYCLIC COMPOUND HAVING SELECTIVE INHIBITORY ACTION ON KRAS OVER HRAS AND NRAS” (CHUGAI SEIYAKU KABUSHIKI KAISHA, priority 2021, published 2024)
Where two headings read alike, the source gives them in different places.

Experiments:
[1] = tested on: human lung cancer strain NCI-H441;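 also: cell proliferation inhibition after four days measured by CellTiter-Glo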
[2] = target: GDP-bound NRAS wild-type protein (Homo sapiens, UniProt P01111); test: Binding to NRAS by surface plasmon resonance (SPR), Single Cycle Kinetics; conditions: for NRAS/KRAS (ratio of KD value for NRAS to KD value for KRAS): SPR, GDP-bound NRAS wild-type protein vs GDP-bound KRAS wild-type protein; for NRAS/KRAS (ratio of KD value with respect to GDP-bound NRAS wild-type protein to KD value with respect to KRAS): SPR KD ratio NRAS/KRAS, class symbols
[3] = target: GDP-bound KRAS wild-type protein (Homo sapiens, UniProt P01116); test: Binding to KRAS by surface plasmon resonance (SPR), Single Cycle Kinetics; conditions: GDP-bound KRAS wild-type protein, read-out: KRAS KD
[4] = target: GDP-bound HRAS wild-type protein (Homo sapiens, UniProt P01112); test: Binding to HRAS by surface plasmon resonance (SPR), Single Cycle Kinetics; conditions: for HRAS/KRAS (ratio of KD value for HRAS to KD value for KRAS): SPR, GDP-bound HRAS wild-type protein vs GDP-bound KRAS wild-type protein; for HRAS/KRAS (ratio of KD value with respect to GDP-bound HRAS wild-type protein to KD value with respect to KRAS): SPR KD ratio HRAS/KRAS, class symbols
[5] = SPR, Single Cycle Kinetics, 1:1 binding model
[6] = SPR Single Cycle Kinetics, 1:1 binding model

Sequence of GDP-bound NRAS wild-type protein (P01111 whole entry): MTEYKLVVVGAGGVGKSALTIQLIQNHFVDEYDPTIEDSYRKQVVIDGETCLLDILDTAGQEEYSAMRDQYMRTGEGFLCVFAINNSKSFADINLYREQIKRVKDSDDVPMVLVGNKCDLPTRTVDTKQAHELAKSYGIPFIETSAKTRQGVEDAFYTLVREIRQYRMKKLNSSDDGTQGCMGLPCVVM
Sequence of GDP-bound KRAS wild-type protein (P01116 whole entry): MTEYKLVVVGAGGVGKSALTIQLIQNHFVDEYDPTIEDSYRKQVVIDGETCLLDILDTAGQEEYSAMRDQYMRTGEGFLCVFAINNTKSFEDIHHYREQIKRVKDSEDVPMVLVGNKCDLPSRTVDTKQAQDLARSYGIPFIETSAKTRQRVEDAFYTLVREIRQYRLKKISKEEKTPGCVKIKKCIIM
Sequence of GDP-bound HRAS wild-type protein (P01112 whole entry): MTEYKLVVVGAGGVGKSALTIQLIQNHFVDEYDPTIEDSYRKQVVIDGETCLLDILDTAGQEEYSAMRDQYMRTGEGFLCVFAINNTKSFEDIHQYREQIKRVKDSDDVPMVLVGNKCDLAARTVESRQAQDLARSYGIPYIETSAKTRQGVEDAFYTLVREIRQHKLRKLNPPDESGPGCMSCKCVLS

Compound	IC50 [1]	Kd ([3]; SPR, Single Cycle Kinetics)	Kd [3, 5]	Kd [3, 6]	NRAS/KRAS (ratio of KD value for NRAS to KD value for KRAS) [2]	HRAS/KRAS (ratio of KD value for HRAS to KD value for KRAS) [4]	NRAS/KRAS (ratio of KD value for NRAS to KD value for KRAS) ([2]; KD ratio class)	HRAS/KRAS (ratio of KD value for HRAS to KD value for KRAS) ([4]; KD ratio class)	NRAS/KRAS (ratio of KD value with respect to GDP-bound NRAS wild-type protein to KD value with respect to KRAS) [2]	HRAS/KRAS (ratio of KD value with respect to GDP-bound HRAS wild-type protein to KD value with respect to KRAS) [4]
CCO[C@H](C)[C@@H]1NC(=O)[C@H](CC(C)C)N(C)C(=O)C[C@@H](C(=O)N(C)CC)N(C)C(=O)[C@H](C2CCCC2)N(C)C(=O)C2(CC(C)(C)C2)NC(=O)[C@@H]2C[C@H](C)CN2C(=O)[C@H](CCc2ccc(C(F)(F)F)c(OC)c2)NC(=O)CN(C)C(=O)[C@H](Cc2ccc(C)cc2)N2CC/C=C\C[C@@H](C2=O)N(C)C(=O)[C@@H]2CCCN2C1=O [PP2419]	125 nM	2 nM	–	–	A (a compound having 10 or more and less than 20 is denoted as A)	A (a compound having 10 or more and less than 20 is denoted as A)	–	–	–	–
CCO[C@@H]1C[C@H]2C(=O)NC3(CCC3)C(=O)N(C)[C@@H](C3CCCC3)C(=O)N(C)[C@H](C(=O)N(C)C)CC(=O)N(C)[C@@H](CC)C(=O)N[C@@H](C3CCC3)C(=O)N(C)CC(=O)N(C)[C@H]3C/C=C\CCN(C3=O)[C@@H](Cc3ccc(C(F)(F)F)cc3)C(=O)N(C)CC(=O)N[C@@H](CCc3cc(F)c(C(F)(F)F)c(F)c3)C(=O)N2C1 [PP1269, (2S,8S,12R,14S,20S,23S,27S,30S,36S,38Z)-30-cyclobutyl-20-cyclopentyl-8-[2-[3,5-difluoro-4-(trifluoromethyl)phenyl]ethyl]-12-ethoxy-27-ethyl-N,N,4,19,22,26,32,35-octamethyl-3,6,9,15,18,21,25,28,31,34,42-undecaoxo-2-[[4-(trifluoromethyl)phenyl]methyl]spiro[1,4,7,10,16,19,22,26,29,32,35-undecazatricyclo[34.5.1.0^10,14]dotetracont-38-ene-17,1′-cyclobutane]-23-carboxamide]	29 nM	–	0.091 nM	–	–	–	A (a compound having 10 or more and less than 20 is denoted as A)	B (a compound having 3 or more and less than 10 is denoted as B)	–	–
CCC(CC)[C@H]1C(=O)N(C)[C@H](C(=O)N(C)C)CC(=O)N(C)[C@@H](COC)C(=O)N[C@@H]([C@@H](C)CC)C(=O)N(C)CC(=O)N(C)[C@H]2C/C=C\CCN(C2=O)[C@@H](CC2CCCCC2)C(=O)N(C)CC(=O)N[C@@H](CCc2ccc(C(F)(F)F)c(OC)c2)C(=O)N2C[C@@H](C)C[C@H]2C(=O)NC2(CC(C)(C)C2)C(=O)N1C [PP2466]	170 nM	3.9 nM	–	–	A (a compound having 10 or more and less than 20 is denoted as A)	A (a compound having 10 or more and less than 20 is denoted as A)	–	–	–	–
C#CCN1CC(=O)N(C)[C@H]2C/C=C\CCN(C2=O)[C@@H](Cc2ccc(C)cc2)C(=O)N(C)CC(=O)N[C@@H](CCc2ccc(C(F)(F)F)c(Cl)c2)C(=O)N2C[C@H](OCC)C[C@H]2C(=O)NC2(CC(C)(C)C2)C(=O)N(C)[C@@H](C2CCCC2)C(=O)N(C)[C@H](C(=O)N(C)C)CC(=O)N(C)[C@@H](CCC)C(=O)N[C@@H](CC(C)C)C1=O [PP2526]	54.5 nM	–	–	4 nM	–	–	–	–	A (a compound having 10 or more and less than 20 is denoted as A)	B (a compound having 3 or more and less than 10 is denoted as B)
CCC[C@H]1C(=O)N[C@@H]([C@@H](C)CC)C(=O)N2CCC[C@H]2C(=O)N(C)[C@H]2C/C=C\CCN(C2=O)[C@@H](Cc2ccc(C)cc2)C(=O)N(C)CC(=O)N[C@@H](CCc2ccc(Cl)c(Cl)c2)C(=O)N2C[C@H](OC(C)C)C[C@H]2C(=O)NC2(CC(C)(C)C2)C(=O)N(C)[C@@H](C(CC)CC)C(=O)N(C)[C@H](C(=O)N(C)C)CC(=O)N1C [PP2641]	98.6 nM	–	–	2 nM	–	–	–	–	AA (a compound having 20 or more is denoted as AA)	A (a compound having 10 or more and less than 20 is denoted as A)
CCO[C@@H]1C[C@H]2C(=O)NC3(CCC3)C(=O)N(C)[C@@H](C3CCCC3)C(=O)N(C)[C@H](C(=O)N(C)C)CC(=O)N(C)[C@@H](CC)C(=O)N[C@@H]([C@@H](C)CC)C(=O)N(C)CC(=O)N(C)[C@H]3C/C=C\CCN(C3=O)[C@@H](Cc3ccc(C(F)(F)F)cc3)C(=O)N(C)CC(=O)N[C@@H](CCc3ccc(Cl)c(Cl)c3)C(=O)N2C1 [PP1249]	55.4 nM	–	0.18 nM	–	–	–	A (a compound having 10 or more and less than 20 is denoted as A)	A (a compound having 10 or more and less than 20 is denoted as A)	–	–
CCC[C@H]1C(=O)N[C@@H]([C@@H](C)CC)C(=O)N(C)CC(=O)N(C)[C@H]2C/C=C\CCN(C2=O)[C@@H](CC2CCC(F)(F)CC2)C(=O)N(C)CC(=O)N[C@@H](CCc2cc(F)c(C(F)(F)F)c(F)c2)C(=O)N2C[C@H](OCC)C[C@H]2C(=O)NC2(CCC2)C(=O)N(C)[C@@H](C2CCCC2)C(=O)N(C)[C@H](C(=O)N(C)C)CC(=O)N1C [PP1450, (2S,8S,12R,14S,20S,23S,27S,30S,36S,38Z)-20-cyclopentyl-2-[(4,4-difluorocyclohexyl)methyl]-8-[2-[3,5-difluoro-4-(trifluoromethyl)phenyl]ethyl]-12-ethoxy-N,N,4,19,22,26,32,35-octamethyl-30-[(1S)-1-methylpropyl]-3,6,9,15,18,21,25,28,31,34,42-undecaoxo-27-propyl-spiro[1,4,7,10,16,19,22,26,29,32,35-undecazatricyclo[34.5.1.0^10,14]dotetracont-38-ene-17,1′-cyclobutane]-23-carboxamide]	50.1 nM	–	0.14 nM	–	–	–	A (a compound having 10 or more and less than 20 is denoted as A)	A (a compound having 10 or more and less than 20 is denoted as A)	–	–
CCO[C@@H]1C[C@H]2C(=O)NC3(CCC3)C(=O)N(C)[C@@H](C3CCCC3)C(=O)N(C)[C@H](C(=O)N(C)C)CC(=O)N(C)[C@@H](C)C(=O)N[C@@H]([C@@H](C)CC)C(=O)N(C)CC(=O)N(C)[C@H]3CCCCCN(C3=O)[C@@H](Cc3ccc(F)cc3)C(=O)N(C)CC(=O)N[C@@H](CCc3cc(F)c(C(F)(F)F)c(F)c3)C(=O)N2C1 [PP1189]	16.1 nM	0.066 nM	–	–	B (a compound having 3 or more and less than 10 is denoted as B)	B (a compound having 3 or more and less than 10 is denoted as B)	–	–	–	–

Second part, led by results:

IC50 [1]	Kd ([3]; SPR, Single Cycle Kinetics)	Kd [3, 5]	Kd [3, 6]	Compound	NRAS/KRAS (ratio of KD value for NRAS to KD value for KRAS) [2]	HRAS/KRAS (ratio of KD value for HRAS to KD value for KRAS) [4]	NRAS/KRAS (ratio of KD value for NRAS to KD value for KRAS) ([2]; KD ratio class)	HRAS/KRAS (ratio of KD value for HRAS to KD value for KRAS) ([4]; KD ratio class)	NRAS/KRAS (ratio of KD value with respect to GDP-bound NRAS wild-type protein to KD value with respect to KRAS) [2]	HRAS/KRAS (ratio of KD value with respect to GDP-bound HRAS wild-type protein to KD value with respect to KRAS) [4]
3.6 nM	–	0.056 nM	–	CCO[C@@H]1C[C@H]2C(=O)NC3(CCC3)C(=O)N(C)[C@@H](C3CCCC3)C(=O)N(C)[C@H](C(=O)N3CCOCC3)CC(=O)N(C)[C@@H](CC)C(=O)N[C@@H]([C@@H](C)CC)C(=O)N(C)CC(=O)N(C)[C@H]3C[C@@H](C)[C@@H](C)CN(C3=O)[C@@H](Cc3ccc(C(F)(F)F)cc3)C(=O)N(C)CC(=O)N[C@@H](CCc3cc(F)c(C(F)(F)F)c(F)c3)C(=O)N2C1 [PP1354]	–	–	A (a compound having 10 or more and less than 20 is denoted as A)	B (a compound having 3 or more and less than 10 is denoted as B)	–	–
14.1 nM	–	0.22 nM	–	CCO[C@@H]1C[C@H]2C(=O)NC3(CCC3)C(=O)N(C)[C@@H](C3CCCC3)C(=O)N(C)[C@H](C(=O)N3CCOCC3)CC(=O)N(C)[C@@H](CC3CCC3)C(=O)N[C@@H]([C@@H](C)CC)C(=O)N(C)CC(=O)N(C)[C@H]3C/C=C\CCN(C3=O)[C@@H](Cc3ccc(C(F)(F)F)cc3)C(=O)N(C)CC(=O)N[C@@H](CCc3cc(F)c(C(F)(F)F)c(F)c3)C(=O)N2C1 [PP1422]	–	–	AA (a compound having 20 or more is denoted as AA)	A (a compound having 10 or more and less than 20 is denoted as A)	–	–
9.5 nM	–	0.25 nM	–	CCO[C@@H]1C[C@H]2C(=O)NC3(CCC3)C(=O)N(C)[C@@H](C3CCCC3)C(=O)N(C)[C@H](C(=O)N3CCOCC3)CC(=O)N(C)[C@@H](CC(C)C)C(=O)N[C@@H]([C@@H](C)CC)C(=O)N(C)CC(=O)N(C)[C@H]3C/C=C\CCN(C3=O)[C@@H](Cc3ccc(C)cc3)C(=O)N(C)CC(=O)N[C@@H](CCc3cc(F)c(C(F)(F)F)c(F)c3)C(=O)N2C1 [PP1415]	–	–	A (a compound having 10 or more and less than 20 is denoted as A)	A (a compound having 10 or more and less than 20 is denoted as A)	–	–
11.2 nM	–	0.17 nM	–	CC[C@H](C)[C@@H]1NC(=O)[C@H](CC)N(C)C(=O)C[C@@H](C(=O)N2CCOCC2)N(C)C(=O)[C@H](C2CCCC2)N(C)C(=O)C2(CCCC2)NC(=O)[C@@H]2CCCN2C(=O)[C@H](CCc2cc(F)c(C(F)(F)F)c(F)c2)NC(=O)CN(C)C(=O)[C@H](Cc2ccc(C(F)(F)F)cc2)N2C[C@H](C)CC[C@@H](C2=O)N(C)C(=O)CN(C)C1=O [PP1383]	–	–	B (a compound having 3 or more and less than 10 is denoted as B)	B (a compound having 3 or more and less than 10 is denoted as B)	–	–
